Assay in all cases: ASTM D4445-10 fungal growth on dip-treated Radiata pine specimens
Common to all, as to format: cell-based
What all share (details): rating 0 (No Growth) to 5 (Complete Growth), one month, 28° C.

Assay [1] deals with Aureobasidium pullulans (ATCC #9348). The procedure:
(§1) Radiata pine lumber was machined to specimens with size of 7 mm by 20 mm in cross section and 70 mm long. Solutions prepared as described above were used to treat the machined Radiata pine specimens. The treatment was carried out in a 600 mL beaker. Two unused test pieces were placed on the bottom of the beaker, and the specimens, four in a layer, were placed on the previous layers until all the treatment replicates were included. The specimens were held down with a finger bearing down on a watch glass and submerged in treating solution for 15 seconds. After 15 seconds, the beaker was drained but with specimens still held down, and then was tightly covered with a piece of plastic sheet to prevent drying and was stored overnight. Similarly, untreated control specimens were treated with water.
(§2) One day after treatment, duplicate wood specimens from the same treatment group were tested according to ASTM D4445-10 methodology. The wood specimens were checked for inhibition against sapstain fungi and molds Trichoderma pseudokoningii (ATCC #26801), Aureobasidium pullulans (ATCC #9348), and a mixture of Aspergillus niger (ATCC #6275) and Penicillium funiculosum (ATCC #11797). This method is described below:
(§3) (1) Placed duplicate wood specimens on top of polyester mesh and laid on a stack of four (4) filter paper squares (approximately 2 inches by 2.5 inches) presoaked in 5 mL sterile DI water.
(§4) (2) Prepared fungal mixture from freshly grown slants of each test organism.
(§5) (3) Added 2 mL of DI water and 0.1% Tween 20 to the slant and inverted to mix.
(§6) (4) Poured the concentrate into a total volume of 16 mL.
(§7) (5) Enumerated the stock via hemocytometer and adjusted to […] with additional DI water.
(§8) (6) Inoculated wood specimens via applying 0.25 mL of one of the three separate fungal suspensions to the top of the wood and distributing evenly on the surface with an L-spreader.
(§9) (7) Placed inoculated wood specimens in a humidity chamber for one month at 95% or larger relative humidity and 28° C.
(§10) (8) Rated wood specimens with a rating from “0” (No Growth) to “5” (Complete Growth).
as §1, with “treat” for “treat the”
(§11) One day after treatment, duplicate wood specimens from the same treatment group were tested according to ASTM D4445-10(2019) methodology. The wood specimens were checked for inhibition against sapstain fungi and molds Trichoderma pseudokoningii (ATCC #26801), Aureobasidium pullulans (ATCC #9348), and a mixture of Aspergillus niger (ATCC #6275) and Penicillium funiculosum (ATCC #11797). […]

For assay [2], the system named is Trichoderma pseudokoningii (ATCC #26801). As for the experimental part:
as §1, §2, §3, §4, §5, §6, §7, §8, §9, §10
as §1, with “treat” for “treat the”
as §11

Assay [3] concerns mixture of Aspergillus niger (ATCC #6275) and Penicillium funiculosum (ATCC #11797). As for the experimental part: as §1, §2, §3, §4, §5, §6, §7, §8, §9, §10
as §1, with “treat” for “treat the”
as §11

The mark [4] stands for this setting: 2400 ppm treatment solution, Example 2, eight replicates.
Where [5] appears, read: 2400 ppm treatment solution, Example 3, ten replicates.
The mark [6] stands for this setting: 4800 ppm treatment solution, Example 2, eight replicates.

As for “didecyl bis(hydroxyethyl) ammonium borate [DPAB]”, the results for the “Average Scoring A.p.” value in assay [1] (setting [4]), in assay [1] (setting [5]) and in assay [1] (setting [6]) were 3.3, 3.6 and 0.8, respectively. The results for the “Average Scoring T.p.” value in assay [2] (setting [4]), in assay [2] (setting [5]) and in assay [2] (setting [6]) were 2.5, 2 and 2.0, respectively. The “Average Scoring A.n. + P.f.” value in assay [3] (setting [4]) was 5.0; in assay [3] (setting [5]) it was 2; in assay [3] (setting [6]), 4.9.
On to `CCCCNC(=O)OCC#CI` [IPBC, 3-iodo-2-propynyl butyl carbamate], for which the “Average Scoring A.p.” value is 0.0 in assay [1] (setting [4]), 0 in assay [1] (setting [5]) and 0.0 in assay [1] (setting [6]). Also, the “Average Scoring T.p.” value in assay [2] (setting [4]) amounted to 2.6; in assay [2] (setting [5]) it was 1.7; in assay [2] (setting [6]), 2.8. In addition, the “Average Scoring A.n. + P.f.” value is recorded as 0.0 in assay [3] (setting [4]), 2.1 in assay [3] (setting [5]) and 0.0 in assay [3] (setting [6]).
